We go through 18 compounds from PubChem BioAssay (NCI).

Among the test systems are MALME-3M melanoma; SF-295 CNS; UACC-257 melanoma; SNB-78 CNS; XF 498 CNS; KM20L2 colon; LOX IMVI melanoma; NCI-H522 lung; OVCAR-8 ovarian; NCI/ADR-RES ovarian; DU-145 prostate; BT-549 breast.
What all share (test): inhibition of tumour cell growth, NCI panel, 48 h

SMILES strings stand for the structures. Several values for one entry are separate records, joined by “and”; a condition that tells them apart may be missing. Equal entries are not always repeated.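 How tested: cells in 96-well plates exposed to compound for 48 hours at five concentrations. Here, GI50 denotes the concentration required for 50% inhibition of growth. Definition used: TGI = concentration required for complete inhibition of growth.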 Where only a bound is given, the exact number is not on record here.

In the case of `COc1cc(C2C(Cl)C(=O)N2NC(=O)c2ccc(N)cc2)cc(Br)c1O` (stereo unspecified), the TGI in the assay on MALME-3M melanoma worked out at 27.5 µM; with SF-295 CNS it was 27.7 µM; in the assay on UACC-257 melanoma, 35.9 µM; in the assay with SNB-78 CNS it was 43.9 µM; with XF 498 CNS, 30.7 µM; in the assay with KM20L2 colon it was 33.6 µM. Besides, the TGI in the assay with LOX IMVI melanoma was 11 µM; with NCI-H522 lung it was 3.4 µM; in the assay on OVCAR-8 ovarian it was greater than 100 µM.

For `CCN(CC)Cc1c(/C=C\c2cc(OC)c(OC)c(OC)c2)ccc(OC)c1O`, the TGI is greater than 100 µM in the assay with MALME-3M melanoma; 32.1 µM in the assay with SF-295 CNS; greater than 100 µM in the assay on UACC-257 melanoma; greater than 100 µM in the assay with SNB-78 CNS; 6.29 µM in the assay on NCI/ADR-RES ovarian; 21.5 µM in the assay with XF 498 CNS. For the same compound, the TGI is 11.9 µM in the assay on KM20L2 colon; greater than 100 µM in the assay with LOX IMVI melanoma; 6.22 µM with NCI-H522 lung; 39.7 µM in the assay with DU-145 prostate; 63.2 µM in the assay with OVCAR-8 ovarian; greater than 82.2 µM with BT-549 breast.

`Ic1cc2c(cc1C1SCCCS1)OCO2`: the TGI in the assay with MALME-3M melanoma, in the assay with SF-295 CNS, in the assay with UACC-257 melanoma, in the assay with SNB-78 CNS, with KM20L2 colon and in the assay with LOX IMVI melanoma was greater than 100 µM each time. The TGI with NCI-H522 lung and in the assay on OVCAR-8 ovarian was greater than 100 µM in each case.

Turning to `CC(C)(C)C1=CC(=C2C(=O)C(=O)c3ccccc3C2=O)C=C(C(C)(C)C)C1=O`, the TGI in the assay with MALME-3M melanoma was 58.7 µM; in the assay with SF-295 CNS it was greater than 100 µM; in the assay with UACC-257 melanoma, 80.2 µM; in the assay on SNB-78 CNS, greater than 100 µM; in the assay with KM20L2 colon it was greater than 100 µM; in the assay with LOX IMVI melanoma it was greater than 100 µM. For the same compound, the TGI with NCI-H522 lung was 37.9 µM; with OVCAR-8 ovarian it was greater than 100 µM.

In the case of `O=Cc1ccc(CCl)cc1`, the TGI with SF-295 CNS came out at 32 µM; in the assay with UACC-257 melanoma, 36.5 µM; in the assay with SNB-78 CNS, 47.7 µM; with XF 498 CNS, 34.6 µM; in the assay on KM20L2 colon it was 61.8 µM; with LOX IMVI melanoma it was 28 µM. Also, the figures for the TGI with NCI-H522 lung and in the assay with OVCAR-8 ovarian were 35.9 µM and 35.2 µM, respectively.

In the case of `COC(=O)C(C/C=C(\C)c1ccc(Cl)cc1)C(C)=O` (stereo unspecified), the TGI in the assay with MALME-3M melanoma is greater than 100 µM; in the assay on SF-295 CNS, greater than 100 µM; in the assay on UACC-257 melanoma, greater than 71.3 µM; in the assay with SNB-78 CNS, greater than 100 µM; in the assay with NCI/ADR-RES ovarian it was 63.1 µM; in the assay on XF 498 CNS, greater than 100 µM. Besides, the TGI with KM20L2 colon is greater than 100 µM; in the assay on LOX IMVI melanoma it was 28.1 µM; in the assay with NCI-H522 lung, 92.3 µM; with OVCAR-8 ovarian it was greater than 100 µM.

Turning to `CN1CCN(c2ccc3nc(-c4ccc5nc(-c6ccc(O)cc6)[nH]c5c4)[nH]c3c2)CC1`, the GI50 was 3.29 µM in the assay on MALME-3M melanoma; 380 µM with SF-295 CNS; 4.47 µM and 3.05 µM in the assay on NCI-H522 lung; 173 µM in the assay with OVCAR-8 ovarian. Besides, the TGI was determined as 62.5 µM in the assay with MALME-3M melanoma; 678 µM in the assay on SF-295 CNS; 188 µM in the assay on UACC-257 melanoma; 638 µM in the assay with SNB-78 CNS; 786 µM with NCI/ADR-RES ovarian; 116 µM in the assay with XF 498 CNS. For the same compound, the TGI with KM20L2 colon was 1160 µM; in the assay with LOX IMVI melanoma, 553 µM; in the assay on NCI-H522 lung, 65.5 µM and 202 µM; with DU-145 prostate it was 526 µM; in the assay on OVCAR-8 ovarian, 539 µM; in the assay with BT-549 breast, 715 µM.

Regarding `CCCCCC/C=C1\CCC(CN2CCOCC2)C1=O` (stereo unspecified), the TGI in the assay with MALME-3M melanoma came to 30.6 µM; in the assay with SF-295 CNS it was 39.3 µM; with UACC-257 melanoma, 29.3 µM; with SNB-78 CNS, 50.6 µM; in the assay with XF 498 CNS, 29.9 µM; in the assay with KM20L2 colon, 37 µM. The TGI with LOX IMVI melanoma came to 25.1 µM; in the assay with NCI-H522 lung, 19.4 µM; in the assay with OVCAR-8 ovarian, 32.7 µM.

For `O=C(Nc1cccc2c1[nH]c1c(-c3ccccc3)nccc12)c1ccccc1[N+](=O)[O-]`, the TGI in the assay with MALME-3M melanoma was greater than 100 µM; with SF-295 CNS, 88 µM; in the assay on UACC-257 melanoma, greater than 100 µM; with SNB-78 CNS it was greater than 100 µM; in the assay with KM20L2 colon, greater than 100 µM; with LOX IMVI melanoma, greater than 100 µM. For the same compound, the TGI in the assay with OVCAR-8 ovarian is greater than 100 µM.

On to `CCOC(=O)C(NC(=O)c1ccccc1)(Nc1ccc(Cl)cc1C(F)(F)F)C(F)(F)F` (stereo unspecified), for which the TGI was 22.1 µM with MALME-3M melanoma; greater than 69.8 µM with SF-295 CNS; greater than 100 µM in the assay with UACC-257 melanoma; 10.6 µM in the assay with NCI/ADR-RES ovarian; greater than 100 µM in the assay with LOX IMVI melanoma; 7.29 µM in the assay with NCI-H522 lung. For the same compound, the TGI is greater than 100 µM in the assay with DU-145 prostate, greater than 100 µM in the assay with OVCAR-8 ovarian and 32.4 µM in the assay on BT-549 breast.

Regarding `Cc1ccc(S(=O)c2sccc2C=O)cc1` (stereo unspecified), the TGI in the assay on MALME-3M melanoma is greater than 100 µM; with SF-295 CNS it was 71.3 µM; in the assay with UACC-257 melanoma it was greater than 100 µM; in the assay on NCI/ADR-RES ovarian, 67.2 µM; in the assay on LOX IMVI melanoma, 32.4 µM; in the assay on NCI-H522 lung, greater than 100 µM. The TGI was greater than 100 µM in the assay with DU-145 prostate, 56.5 µM in the assay on OVCAR-8 ovarian and 60.3 µM in the assay with BT-549 breast.

`CCN(CC)CCNc1ccc2nnn3c4ccc(O)cc4c(=O)c1c23`: the TGI in the assay with MALME-3M melanoma worked out at 19.4 µM; in the assay with SF-295 CNS it was 17.8 µM; in the assay with UACC-257 melanoma it was 24.9 µM; in the assay with SNB-78 CNS it was 21.1 µM; in the assay on NCI/ADR-RES ovarian, 12.2 µM; with KM20L2 colon, 17.6 µM. Further, the TGI in the assay with LOX IMVI melanoma was found to be 4.05 µM; in the assay on NCI-H522 lung, 20.9 µM; with DU-145 prostate, 27.6 µM; in the assay with OVCAR-8 ovarian, 17.5 µM; in the assay with BT-549 breast it was 25.5 µM.

On to `CCOC(=O)C(C(=S)SC)c1nn2c(=O)cc(C)nc2s1` (stereo unspecified), for which the TGI with MALME-3M melanoma was determined as 31 µM; in the assay with SF-295 CNS it was 44.6 µM; in the assay on UACC-257 melanoma, 44.2 µM; with NCI/ADR-RES ovarian, 54.8 µM; with LOX IMVI melanoma, 29.4 µM; in the assay on NCI-H522 lung, 42.5 µM. Also, the TGI was determined as 32.8 µM in the assay on DU-145 prostate, 35.5 µM with OVCAR-8 ovarian and 34.2 µM in the assay on BT-549 breast.

`OCCOc1ccccc2cccc1-2`: the TGI in the assay with MALME-3M melanoma, in the assay with SF-295 CNS, with UACC-257 melanoma, in the assay with NCI/ADR-RES ovarian, with LOX IMVI melanoma and with NCI-H522 lung was greater than 100 µM in each case. The TGI in the assay with DU-145 prostate, with OVCAR-8 ovarian and with BT-549 breast was greater than 100 µM throughout.

Regarding `CCOC(=O)C(=O)/C(=C/N1C(=O)CC(=O)NC1=S)C(=O)OCC`, the TGI with MALME-3M melanoma, with SF-295 CNS, with UACC-257 melanoma, in the assay on NCI/ADR-RES ovarian, with LOX IMVI melanoma and with NCI-H522 lung was greater than 100 µM each time. In addition, the TGI in the assay on DU-145 prostate, in the assay on OVCAR-8 ovarian and in the assay with BT-549 breast was greater than 100 µM throughout.

For the compound `Fc1ccc(-c2sc(-c3cccs3)cc2Cc2cccs2)cc1`, the TGI in the assay with MALME-3M melanoma, with SF-295 CNS, in the assay with UACC-257 melanoma, with NCI/ADR-RES ovarian, in the assay with LOX IMVI melanoma and in the assay on NCI-H522 lung was greater than 100 µM in each case. The TGI with DU-145 prostate, with OVCAR-8 ovarian and with BT-549 breast was greater than 100 µM in each case.

Consider `CSc1nc2c(ncn2C2OCC(O)C(O)C2O)c(=O)n1C` (stereo unspecified), for which the TGI with MALME-3M melanoma, in the assay on SF-295 CNS, with UACC-257 melanoma, with SNB-78 CNS, in the assay with NCI/ADR-RES ovarian and in the assay with XF 498 CNS was greater than 100 µM each time. For the same compound, the TGI in the assay with KM20L2 colon, in the assay on LOX IMVI melanoma, with NCI-H522 lung and in the assay on OVCAR-8 ovarian was greater than 100 µM in each case.

As to `CC(=O)OC1COC(N2C(=O)C(=O)c3cc(Br)ccc32)C(OC(C)=O)C1OC(C)=O` (stereo unspecified), the TGI with MALME-3M melanoma, with SF-295 CNS, in the assay on UACC-257 melanoma, in the assay on SNB-78 CNS, with XF 498 CNS and in the assay with KM20L2 colon was greater than 100 µM in each case. Also, the TGI in the assay with LOX IMVI melanoma, in the assay with NCI-H522 lung and in the assay on OVCAR-8 ovarian was greater than 100 µM throughout.
